Reference: publication PMC6941357, “An in vitro toolbox to accelerate anti-malarial drug discovery and development” (Malaria Journal, 2020)
≈ marks a conversion by molar mass, not a printed value.

Tests used:
[1] = Plasma protein binding via ultracentrifugation (UC); assay type: in vitro ADME, human; conditions: human, pH 7.4, ultracentrifugation, neat plasma, read-out: Fraction unbound, human plasma
Procedure, shortened: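 Pooled human plasma (3–4 donors) spiked and ultracentrifuged; protein-free supernate gave Cunbound, parallel tubes kept at 37 °C gave Ctotal and stability (start vs end). Samples matrix-matched 1:1 with opposite blank and quantified against a common calibration curve; fu SD by error propagation.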

[2] = Octanol/pH 7.4 buffer partition coefficient, shake flask; conditions: pH 7.4
Procedure, shortened: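 Octanol stocks (3-30 mg/mL) were diluted 3- and 10-fold and shaken with equal volumes of pH 7.4 phosphate buffer (67 mM, in 43 mM NaCl) at 37 °C. Both phases were quantified by LC-MS against calibration standards. The coefficient is the mean octanol/buffer concentration ratio, with two time points confirming equilibrium.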

[3] = Binding to human liver microsomes via ultracentrifugation; assay type: in vitro ADME; conditions: human, pH 7.4, 0.4 mg/mL protein, read-out: Fraction unbound, HLM
Procedure, shortened: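 Unbound fraction by ultracentrifugation: Cunbound measured in protein-free supernate, Ctotal from spiked tubes held at 37 °C, sampled at start and end to check degradation. Matrix was 0.4 mg/mL human liver microsomal protein, 0.1 M phosphate pH 7.4; matrix-matched analysis against one calibration curve.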

[4] = Solubility limited absorbable dose (SLAD) calculation with predicted human jejunal Peff; conditions: for solubility: FaSSIF
Excerpt: Predicted Peff values were obtained from a calibration plot of literature Peff values vs measured Caco-2 Papp using either buffer or plasma as the transport medium (see Results section).

[5] = molecular target: CYP2C9 (Homo sapiens, UniProt P11712); assay: Cytochrome P450 inhibition in human liver microsomes
Procedure, shortened: (§1)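 HLM + isoform-selective substrate; stop with cold MeCN (diazepam IS); metabolite quantified by LC–MS against calibrants made in quenched microsomal matrix. Readout = % inhibition of metabolite formation relative to no-inhibitor activity.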

[6] = molecular target: CYP2C19 (Homo sapiens, UniProt P33261); assay: as above; conditions: for inhibition at 20 µM: human, pH 7.4
Procedure, shortened: as §1

[7] = molecular target: CYP2D6 (Homo sapiens, UniProt P10635); assay: as above; conditions: for inhibition at 20 µM: human, pH 7.4
Procedure, shortened: as §1

[8] = molecular target: T1, CYP1A2 (Homo sapiens, UniProt P05177); assay: as above
T1 sequence (P05177 1-516): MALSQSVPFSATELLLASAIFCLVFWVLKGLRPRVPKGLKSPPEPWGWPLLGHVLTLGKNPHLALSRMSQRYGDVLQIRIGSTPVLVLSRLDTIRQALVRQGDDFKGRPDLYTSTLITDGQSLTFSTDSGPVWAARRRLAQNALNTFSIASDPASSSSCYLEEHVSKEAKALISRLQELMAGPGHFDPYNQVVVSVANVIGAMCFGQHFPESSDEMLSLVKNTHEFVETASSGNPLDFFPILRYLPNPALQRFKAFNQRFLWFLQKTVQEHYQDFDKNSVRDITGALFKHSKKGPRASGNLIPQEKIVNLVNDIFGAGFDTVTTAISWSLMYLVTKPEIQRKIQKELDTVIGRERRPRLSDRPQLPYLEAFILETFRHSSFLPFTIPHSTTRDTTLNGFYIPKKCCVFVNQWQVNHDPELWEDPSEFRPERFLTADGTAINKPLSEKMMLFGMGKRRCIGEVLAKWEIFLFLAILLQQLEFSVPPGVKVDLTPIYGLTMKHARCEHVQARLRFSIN
Procedure, shortened: as §1

[9] = molecular target: CYP3A4 (Homo sapiens, UniProt P08684); assay: in vitro; conditions: for inhibition at 20 µM: human; for IC50: highest concentration tested 20 µM
Procedure, shortened: as §1

[10] = based on ref 80 and control compounds
[11] = from Caco-2 Papp via calibration plot
[12] = microsomes, pH 7.4, CYP3A4 (test) % inhibition at max conc
[13] = CYP3A4 (test) IC50, human liver microsomes, CYP3A4 (test)
[14] = human liver microsomes, at max conc, nmi = no measurable inhibition

Sequence of CYP2C9 (P11712 whole entry, canonical isoform): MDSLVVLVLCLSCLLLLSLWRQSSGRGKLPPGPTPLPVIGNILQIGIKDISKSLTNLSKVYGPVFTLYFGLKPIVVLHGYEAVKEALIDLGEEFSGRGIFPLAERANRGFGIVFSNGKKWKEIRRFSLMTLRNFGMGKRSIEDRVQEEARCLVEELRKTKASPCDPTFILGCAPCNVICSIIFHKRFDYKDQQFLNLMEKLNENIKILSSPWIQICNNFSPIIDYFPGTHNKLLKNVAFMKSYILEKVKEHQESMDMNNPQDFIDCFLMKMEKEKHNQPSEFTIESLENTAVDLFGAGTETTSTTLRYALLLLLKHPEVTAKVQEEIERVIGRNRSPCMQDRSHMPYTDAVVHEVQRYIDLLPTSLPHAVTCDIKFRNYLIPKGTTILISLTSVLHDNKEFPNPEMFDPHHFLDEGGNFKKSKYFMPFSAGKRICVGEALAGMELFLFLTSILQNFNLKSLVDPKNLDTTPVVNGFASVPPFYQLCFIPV
Sequence of CYP2D6 (P10635 whole entry): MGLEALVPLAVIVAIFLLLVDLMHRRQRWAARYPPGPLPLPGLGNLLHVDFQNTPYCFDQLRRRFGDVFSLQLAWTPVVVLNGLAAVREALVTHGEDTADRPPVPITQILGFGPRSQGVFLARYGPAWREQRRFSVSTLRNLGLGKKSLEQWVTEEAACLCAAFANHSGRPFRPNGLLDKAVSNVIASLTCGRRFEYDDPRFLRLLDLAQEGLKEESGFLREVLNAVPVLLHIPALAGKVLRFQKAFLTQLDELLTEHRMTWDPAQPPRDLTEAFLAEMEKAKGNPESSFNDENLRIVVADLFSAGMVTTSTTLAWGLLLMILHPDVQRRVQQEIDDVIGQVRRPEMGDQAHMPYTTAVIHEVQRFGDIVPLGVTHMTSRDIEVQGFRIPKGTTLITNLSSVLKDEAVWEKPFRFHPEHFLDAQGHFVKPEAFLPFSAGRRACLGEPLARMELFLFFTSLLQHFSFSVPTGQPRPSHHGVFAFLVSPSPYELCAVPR
Sequence of CYP2C19 (P33261 whole entry): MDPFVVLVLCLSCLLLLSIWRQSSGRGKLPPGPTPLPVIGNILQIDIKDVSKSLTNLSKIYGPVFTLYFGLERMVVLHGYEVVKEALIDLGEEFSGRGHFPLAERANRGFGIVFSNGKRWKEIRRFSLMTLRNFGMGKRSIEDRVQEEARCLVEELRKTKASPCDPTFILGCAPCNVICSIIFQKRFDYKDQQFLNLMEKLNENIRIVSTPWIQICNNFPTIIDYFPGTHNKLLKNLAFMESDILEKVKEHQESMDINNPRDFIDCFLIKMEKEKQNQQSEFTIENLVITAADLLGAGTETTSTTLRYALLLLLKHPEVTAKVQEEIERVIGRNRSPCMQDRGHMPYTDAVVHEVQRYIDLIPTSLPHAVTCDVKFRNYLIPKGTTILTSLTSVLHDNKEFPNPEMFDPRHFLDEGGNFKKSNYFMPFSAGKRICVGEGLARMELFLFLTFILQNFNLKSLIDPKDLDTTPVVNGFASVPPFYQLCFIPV
Sequence of CYP3A4 (P08684 whole entry): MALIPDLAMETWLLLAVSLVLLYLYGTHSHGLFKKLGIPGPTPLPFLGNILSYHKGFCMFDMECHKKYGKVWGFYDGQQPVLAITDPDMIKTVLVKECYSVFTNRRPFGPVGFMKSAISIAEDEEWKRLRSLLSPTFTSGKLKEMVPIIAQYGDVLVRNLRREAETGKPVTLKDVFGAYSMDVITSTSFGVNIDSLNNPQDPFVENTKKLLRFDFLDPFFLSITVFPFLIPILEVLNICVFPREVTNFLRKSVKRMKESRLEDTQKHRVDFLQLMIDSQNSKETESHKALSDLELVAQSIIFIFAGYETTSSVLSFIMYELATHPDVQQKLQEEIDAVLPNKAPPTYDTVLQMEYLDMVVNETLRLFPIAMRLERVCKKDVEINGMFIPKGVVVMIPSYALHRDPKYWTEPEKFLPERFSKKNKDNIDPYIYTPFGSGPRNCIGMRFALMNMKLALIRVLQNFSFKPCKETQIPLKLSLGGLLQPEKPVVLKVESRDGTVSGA

| Structure (SMILES) | fraction unbound at […] ([1]; neat pooled plasma) | logD ([2]; octanol/pH 7.4 buffer) | fraction unbound at […] ([3]; liver microsomes) | solubility [4] [µg/mL] | An (absorption number) ([4]; Peff × tres/R, minimum 1) | SLAD ([4]; Ssi × V (500 mL) × Mp) [mg] | Permeability classification [4, 10] | Predicted human Peff [4, 11] | IC50 [5] [µM] | CYP2C9 % inhibition at max conc ([5]; microsomes) | IC50 [6] [µM] | inhibition at 20 µM ([6]; microsomes) [%] | IC50 [7] [µM] | IC50 [8] [µM] | CYP1A2 % inhibition at max conc ([8]; microsomes) | inhibition at 20 µM [9, 12] [%] | inhibition at 20 µM ([7]; microsomes) [%] | other results |
| --- | --- | --- | --- | --- | --- | --- | --- | --- | --- | --- | --- | --- | --- | --- | --- | --- | --- | --- |
| C[C@H]1[C@H](N2CCS(=O)(=O)CC2)O[C@@H]2O[C@@]3(C)CC[C@H]4[C@H](C)CC[C@@H]1[C@@]24OO3 [Artemisone] | 0.12 ± 0.006 | 2.82 | 0.44 ± 0.024 | 115 (≈ 286 µM) | 6.0 | 345 | High (> 85% absorption (high)) | 5.0 10^−4 cm/s |  |  |  |  |  |  |  |  |  |  |
| CC[C@H]1OC(=O)[C@H](C)[C@@H](O[C@H]2C[C@@](C)(OC)[C@@H](O)[C@H](C)O2)[C@H](C)[C@@H](O[C@@H]2O[C@H](C)C[C@H](N(C)C)[C@H]2O)[C@](C)(O)C[C@@H](C)CN(C)[C@H](C)[C@@H](O)[C@]1(C)O [Azithromycin] | 0.71 | 1.1 | 0.7 ± 0.06 |  | 1.0 | 720 | Low (< 50% absorption (low)) | 0.16 10^−4 cm/s | > 20 | nmi | > 20 | 29 | > 20 | > 20 | nmi |  |  | CYP2D6 % inhibition at max conc ([7]; microsomes): nmi |
| OC(c1cc(C(F)(F)F)nc2c(C(F)(F)F)cccc12)C1CCCCN1 (stereo not shown) [Mefloquine] | 0.058 | 2.7 | 0.05 ± 0.006 | 584 (≈ 1540 µM) |  |  | High (> 85% absorption (high)) |  |  | nmi |  |  |  |  | nmi | 29 |  | CYP3A4 (midaz) % inhibition at max conc ([9]; microsomes): nmi |
| Cc1nc(Nc2ncc(N3CCN(C)[C@H](C)C3)c(Nc3cc(C)n(C)n3)n2)cc(C2CC2)c1F [MMV253] | 0.067 | 4.42 | 0.11 ± 0.017 | 569 (≈ 1220 µM) | 8.1 | 2300 | High (> 85% absorption (high)) | 6.8 10^−4 cm/s | > 20 | nmi |  |  | > 20 | > 20 | nmi | 37 | 35 | IC50 [9, 13]: > 20 µM |
| COc1cc(NC(C)CCCN)c2ncccc2c1 (stereo not shown) [Primaquine] |  |  |  | > 2000 |  |  |  |  |  |  |  | 34 |  |  |  |  | 33 | inhibition at 20 µM ([5]; human, microsomes, pH 7.4): 20%; inhibition at 20 µM ([9]; microsomes, pH 7.4, CYP3A4 (midaz) % inhibition at max conc): 31%; CYP3A4 (test) % inhibition at max conc ([9]; microsomes): nmi; fraction unbound at […] [1]: 0.26 ± 0.023; Log D7.4 [2]: 0.54; logD [2]: 0.54; fraction unbound at […] ([3]; microsomes): 0.56 ± 0.05; Permeability classification [4]: High (key: High: > 85% absorption (high); Intermediate: 50–84% absorption (intermediate); Low: < 50% absorption (low)); An (absorption number) ([4]; human): 3.6; Predicted human Peff ([4]; human): 3.0 10^−4 cm/s; SLAD ([4]; human): > 3560 mg |
| C[C@H]1Cc2c([nH]c3cc(Cl)c(F)cc23)[C@@]2(N1)C(=O)Nc1ccc(Cl)cc12 [KAE609] | 0.057 |  | 0.019 ± 0.001 | 111 (≈ 284 µM) | 13 | 738 | High (> 85% absorption (high)) | 11 10^−4 cm/s | 5.5 |  | < 0.25 |  | 5.9 | 4.5 |  | 30 |  | Ki [5]: 4 µM; Ki [6]: < 0.15 µM; IC50 ([9]; CYP3A4 (midaz) IC50, human liver microsomes, CYP3A4 (midaz)): > 20 µM; IC50 [9, 13]: > 20 µM; CYP3A4 (midaz) % inhibition at max conc ([9]; microsomes): nmi; Ki [7]: 3.7 µM; Ki [8]: 2.7 µM |
| CCc1nc(N)nc(N)c1-c1ccc(Cl)cc1 [Pyrimethamine] | 0.085 | 2.41 | 0.54 ± 0.097 |  | 5.9 | 326 | High (> 85% absorption (high)) | 4.9 10^−4 cm/s |  | nmi |  |  | > 20 | > 20 | nmi |  | 36 | CYP2C19 % inhibition at max conc ([6]; microsomes): nmi |
| CC1(C)c2nc(-c3ccc(F)cc3)c(Nc3ccc(F)cc3)n2CCN1C(=O)CN [KAF156] | 0.11 | 2.06 | 0.14 ± 0.006 | 1600 (≈ 3890 µM) | 3.5 | 2780 | High (> 85% absorption (high)) | 2.9 10^−4 cm/s |  |  |  | 40 |  |  | nmi |  |  |  |
| CCCCN(CCCC)CCC(O)c1cc2c(Cl)cc(Cl)cc2c2cc(C(F)(F)F)ccc12 (stereo not shown) [Halofantrine] | 0.13 |  | 0.002 ± 0.0002 | 69.9 (≈ 140 µM) | 13 | 466 | High (> 85% absorption (high)) | 11 10^−4 cm/s | > 20 |  | > 20 |  | 0.27 | > 20 |  |  |  | CYP2C9 % inhibition at max conc [5, 14]: nmi; CYP2C19 % inhibition at max conc [6, 14]: nmi; inhibition at 20 µM ([9]; microsomes, pH 7.4, CYP3A4 (midaz) % inhibition at max conc, human liver microsomes, CYP3A4 (midaz), at max conc, nmi = no measurable inhibition): 24%; inhibition at 20 µM ([9]; microsomes, pH 7.4, CYP3A4 (test) % inhibition at max conc, human liver microsomes, CYP3A4 (test), at max conc, nmi = no measurable inhibition): 19%; Ki [7]: 0.19 µM; CYP1A2 % inhibition at max conc [8, 14]: nmi |
